The results in this text go back to publication PMC9400670, “Establishing the selective phospholipid membrane coordination, permeation and lysis properties for a series of ‘druggable’ supramolecular self-associating antimicrobial amphiphiles” (Chemical Science, 2022).

Each structure is given as a SMILES string.

The first data set has as its system E. coli polar lipid vesicles. Nature of the data set: Synthetic phospholipid vesicle membrane binding assay (fluorescence polarisation), E. coli polar vesicles. The note with it: lipid vesicles added to SSA (0.15 mM); n = 3; error = standard error; SSA alone set to 100 mP. The procedure: For intrinsically fluorescent SSAs 5, 6 and 8–12, FP titration experiments enabled the observation of SSA: phospholipid vesicle interactions. Here, an increase in FP value indicates an increase in the apparent size of the SSA as it interacts with the phospholipid vesicle. […]
Fluorescence polarisation: Lipid films were resuspended in Buffer (150 mM KCl, 10 mM HEPES, pH 7.4, 2 mM EGTA) and subjected to 9 freeze-thaw cycles in liquid nitrogen and extruded 20 times through a 200 nm polycarbonate membrane. Black bottom 96-well plates were prepared by serially diluting desired vesicle solution across the plate, the appropriate SSA solution (100 µL, 0.15 mM) was added to each well to give a total well volume of 200 µL. Fluorescent SSA solutions were set to a FP value of 100 mP. Data were acquired in endpoint mode. […]
In general terms: In fluorescence polarisation assays a small probe gives low polarisation when free and higher when bound to something large.
Consider `O=C(NCS(=O)(=O)O)Nc1ccccc1-c1nc2ccccc2s1` [SSA 5], for which the “increase in FP, E. coli polar” value came out at 40 ± 4 mP.

For the compound `Cc1ccc2nc(-c3ccc(NC(=O)NCS(=O)(=O)O)cc3)sc2c1` [SSA 6], the “increase in FP, E. coli polar” value is 35 ± 3 mP.

For `O=C(NCS(=O)(=O)O)Nc1ccc(-c2nc3ccccc3s2)cc1` [SSA 8], the “increase in FP, E. coli polar” value worked out at 27 ± 2 mP.

With `Cc1ccc2nc(-c3ccc(NC(=O)NCCC(=O)O)cc3)sc2c1` [SSA 9], the “increase in FP, E. coli polar” value is listed as 53 ± 3 mP.

Turning to `Cc1ccc2nc(-c3ccc(NC(=O)NCCCS(=O)(=O)O)cc3)sc2c1` [SSA 10], the “increase in FP, E. coli polar” value is 25 ± 14 mP.

In the case of `Cc1ccc2nc(-c3ccc(NC(=O)NCC(=O)O)cc3)sc2c1` [SSA 11], the “increase in FP, E. coli polar” value amounted to 79 ± 1 mP.

On to `Cc1ccc2nc(-c3ccc(NC(=S)NCS(=O)(=O)O)cc3)sc2c1` [SSA 12], for which the “increase in FP, E. coli polar” value is 176 ± 2 mP.

Test system in the next data set: not listed separately
The experiment in a line: Mouse plasma protein binding (rapid equilibrium dialysis) with plasma stability. The note with it: % SSA recovered from the assay after 4 hours. The data set is classed as in vitro ADME. The procedure: page 7: Section 4: DMPK Methods and Further Discussion Materials used for DMPK studies: Sprague Dawley rat liver microsomes (male, 771 donors, Lot 1910100), CD-1 mouse liver microsomes (male, 6424 donors, Lot 2010017) and human liver microsomes (mixed gender,50 donors, Lot 1810003) were purchased from Sekisui Xenotech (Kansas City, USA). Microsomal incubations: SSA 1-6 and 10 (final concentration 1 µM) were pre-incubated for 10 min in mouse, rat, or human liver microsomes (final concentration 0.5 mg/mL prepared in 100 mM potassium phosphate buffered saline (PBS)) at 37°C. The reaction was initiated with the addition of the cofactor, NADPH-generating system. The NADPH-generating system consisted of NADP (1.3 mM, pH 7.4), glucose-6-phosphate (3.3 mM, pH 7.4), glucose-6-phosphate dehydrogenase (0.4 unit/mL) and MgCl2 (3.3 mM). The reaction was allowed to proceed for 45 min. At 0, 5, 10, 15, 30, and 45 min aliquots were sampled and quenched in ice cold acetonitrile with internal standard. Incubations were conducted in singlicate; control incubations (substituting PBS for NADPH) were conducted simultaneously. All control incubations were within acceptance criteria in mouse, rat, and human microsomes confirming stability was acceptable over 45 minutes in the absence of co-factor. Protein Binding studies: The fraction unbound in mouse plasma (BioIVT, Frankfurt Am Main, Germany) of SSA 1-6 and 10 were measured using a Rapid Equilibrium Dialysis device (Thermo Fisher Scientific, Loughborough, UK). Mouse plasma containing 2 µM of SSA 1-6 and 10 were dialysed against 100 mM PBS for 4h at 37°C at 5% CO2. Samples were removed, matrix matched and quenched with acetonitrile containing internal standard; further processing is described in: Sample preparation and liquid chromatography-mass spectrometry analysis. Caco-2 Permeability studies: The permeability assay for SSA 1-6 and 10 was performed at Cyprotex Discovery Limited (Macclesfield, UK) and analysed at Cancer Research Horizons. SSA 1-6 and 10 were incubated at a final concentration of 10 uM with human intestinal Caco-2 cells at 37°C, 5% CO2 with a relative humidity of 95%. After 120 minutes the apical compartment inserts and the companion plates were separated, and the apical and basolateral samples were transferred. Incubations were conducted in duplicate and the fluorescent membrane integrity marker; Lucifer Yellow was co- incubated with the SSA compounds at the start of the assay. Compounds of known permeability were used as controls and were within acceptance criteria. Further processing is described in: Sample preparation and liquid chromatography-mass spectrometry analysis. Sample preparation and liquid chromatography-mass spectrometry analysis: All samples were centrifuged at 3500 rpm at 4°C for 10 min to precipitate protein and enable sampling of supernatant prior to appropriate dilution for liquid chromatography-mass spectrometry (LC-MS/MS analysis). For the purpose of CLINT determination, samples were analysed using a Waters I-Class ultra-high- performance liquid chromatography (UHPLC) system coupled to a Waters Xevo TQ-XS mass spectrometer (Waters, Elstree, UK). Separation of analytes was achieved using an Accucore Vanquish C18+ column (1.5 µm, 50 x 2.1 mm) (Thermo Fisher Scientific, Hemel Hempstead) at a temperature of 40°C and a binary mobile phase gradient at a flow rate of 0.4 mL/min. Initial LC conditions comprised 95% solvent A (0.1% formic acid + 5 mM ammonium acetate in water), 5% solvent B (0.1% formic acid + 5 mM ammonium acetate in acetonitrile); this was ramped to 90% B at 5 min, and then immediately returned to initial conditions and held for the remaining 0.5 min of the method. Sample analysis was by electrospray ionisation combined with multiple reaction monitoring in negative ion mode. […]
Background: In equilibrium dialysis free small molecules cross a membrane that holds back macromolecules.
Consider `O=C(NCS(=O)(=O)O)Nc1ccc(C(F)(F)F)cc1` [SSA 3], for which the “Recovery (PPB assay)” value came out at 80%.

The same data set, now with this note: mouse, 4 h, 2 µM.
In the case of `O=C(NCS(=O)(=O)O)Nc1ccc(C(F)(F)F)cc1` [SSA 1], the Plasma stability is recorded as 94%.

`O=C(NCCCS(=O)(=O)O)Nc1ccc(C(F)(F)F)cc1` [SSA 2]: the Plasma stability came to 93%.

The compound `O=C(NCS(=O)(=O)O)Nc1ccc(C(F)(F)F)cc1` [SSA 3] displayed a Plasma stability of 89%.

Turning to `O=C(O)CNC(=O)Nc1ccc(C(F)(F)F)cc1` [SSA 4], the Plasma stability was 96%.

On to `O=C(NCS(=O)(=O)O)Nc1ccccc1-c1nc2ccccc2s1` [SSA 5], for which the Plasma stability turned out to be 92%.

`Cc1ccc2nc(-c3ccc(NC(=O)NCS(=O)(=O)O)cc3)sc2c1` [SSA 6] came in with a Plasma stability of 90%.

On to `Cc1ccc2nc(-c3ccc(NC(=O)NCCCS(=O)(=O)O)cc3)sc2c1` [SSA 10], for which the Plasma stability is recorded as 89%.

Staying with this data set, now noted: mouse, mouse plasma, % SSA recovered from the assay after 4 hours; read-out: Recovery (PPB assay).
In the case of `O=C(NCS(=O)(=O)O)Nc1ccc(C(F)(F)F)cc1` [SSA 1], the recovery at 4 h, 2 µM was 91%.

For `O=C(NCCCS(=O)(=O)O)Nc1ccc(C(F)(F)F)cc1` [SSA 2], the recovery at 4 h, 2 µM was found to be 79%.

Take `O=C(O)CNC(=O)Nc1ccc(C(F)(F)F)cc1` [SSA 4]: the recovery at 4 h, 2 µM was determined as 86%.

Regarding `O=C(NCS(=O)(=O)O)Nc1ccccc1-c1nc2ccccc2s1` [SSA 5], the recovery at 4 h, 2 µM is 109%.

With `Cc1ccc2nc(-c3ccc(NC(=O)NCS(=O)(=O)O)cc3)sc2c1` [SSA 6], the recovery at 4 h, 2 µM turned out to be 101%.

On to `Cc1ccc2nc(-c3ccc(NC(=O)NCCCS(=O)(=O)O)cc3)sc2c1` [SSA 10], for which the recovery at 4 h, 2 µM was determined as 94%.

Staying with this data set, now noted: mouse, plasma.
In the case of `O=C(NCS(=O)(=O)O)Nc1ccc(C(F)(F)F)cc1` [SSA 1], the PPB class entry was “low”.

With `O=C(O)CNC(=O)Nc1ccc(C(F)(F)F)cc1` [SSA 4], the PPB class result is given as “low”.

`O=C(NCS(=O)(=O)O)Nc1ccccc1-c1nc2ccccc2s1` [SSA 5]: the PPB class entry is “very high”.

Consider `Cc1ccc2nc(-c3ccc(NC(=O)NCS(=O)(=O)O)cc3)sc2c1` [SSA 6], for which the PPB class result is given as “very high”.

For the compound `Cc1ccc2nc(-c3ccc(NC(=O)NCCCS(=O)(=O)O)cc3)sc2c1` [SSA 10], the PPB class result is “very high”.

Staying with this data set, now noted: mouse, plasma, 4 h, 2 µM.
`O=C(NCS(=O)(=O)O)Nc1ccc(C(F)(F)F)cc1` [SSA 3]: the PPB came out at 73.8%.

Staying with this data set, now noted: mouse, plasma, PPB.
In the case of `O=C(NCS(=O)(=O)O)Nc1ccc(C(F)(F)F)cc1` [SSA 1], the fraction unbound – broadly, free concentration divided by total concentration – at 4 h, 2 µM is 0.25.

In the case of `O=C(NCCCS(=O)(=O)O)Nc1ccc(C(F)(F)F)cc1` [SSA 2], the fraction unbound at 4 h, 2 µM is 0.166.

`O=C(O)CNC(=O)Nc1ccc(C(F)(F)F)cc1` [SSA 4] showed a fraction unbound at 4 h, 2 µM of 0.328.

For `O=C(NCS(=O)(=O)O)Nc1ccccc1-c1nc2ccccc2s1` [SSA 5], the fraction unbound at 4 h, 2 µM was < 0.003.

The compound `Cc1ccc2nc(-c3ccc(NC(=O)NCS(=O)(=O)O)cc3)sc2c1` [SSA 6] gave a fraction unbound at 4 h, 2 µM of 0.007.

Regarding `Cc1ccc2nc(-c3ccc(NC(=O)NCCCS(=O)(=O)O)cc3)sc2c1` [SSA 10], the fraction unbound at 4 h, 2 µM was 0.007.
